Patent US7745569B2, “Amyloid specific binding peptides and detecting abeta peptide” (The Regents of the University of California, priority 2003, dated 2010)
Entries after “also recorded” stand apart in the source; their conditions may differ. Positions of bridges follow the written chain, without caps; N, C: chain ends. Residues, ends and D or L forms follow the SMILES beside them. No end group written: not given here. *: point of attachment. Biotin = O=C1N[C@H]2[C@H](CS[C@H]2CCCCC(=O)*)N1

Experiments:
[1] = biological target: T1, amyloid form of Aβ1-40 peptide (Homo sapiens, UniProt P05067, R676K/Y681T); test: Staining of Aβ1-40 amyloid by phage clones; assay type: binding; details: 10^11 PFU/ml phage; anti-M13 antibody/alkaline phosphatase detection
T1 construct: purchased Bachem (Torrence, Calif.)
Protocol: Staining and blotting with phage: 10^11 PFU (plaque forming units)/ml of various phage clones were incubated with the amyloid form of Aβ1-40 peptide. Aβ amyloid was made by incubating peptide in TBS (pH 7.4) for 7 days on Falcon 24-well tissue culture wells. After washing, bound phage were visualized by incubation with biotinylated anti-M13 antibody and alkaline phosphatase-conjugated streptavidin, followed by incubation for equivalent times in 5-bromo-4-chloro-3-indolyl phosphate (BCIP) and nitroblue tetrazolium (NBT).

[2] = test system: amyloid plaques in Alzheimer's disease brain; test: Staining of human brain sections (AD and normal) with Thio-Aβ, Thio and synthetic peptide; assay type: binding
Protocol: Staining of human brain with recombinant Thio-Aβ-protein and synthetic peptides: Normal and AD brain samples were obtained from the UCSD Alzheimer's Research Center (La Jolla, Calif.). Sections from a non-AD amyloidosis patient were obtained from the Department of Pathology (UCSD). Paraffin-embedded samples of cortex or other tissues were sectioned at 10 μm and mounted on glass slides. […] Binding was determined by subsequent staining with anti-Thio antibody and anti-mouse IgG coupled to alkaline phosphatase as above. After washing, staining was developed using 5-bromo-4-chloro-3-indolyl-phosphate and nitroblue tetrazolium for identical periods of time. All washes and incubations were done in phage buffer. The existence of amyloid plaques was confirmed by binding of anti-Aβ monoclonal antibody (2066) to sections from the same brain samples. No significant staining was ever observed with secondary antibody alone. Background staining was allowed to develop to the point where cells in the section were evident.
For staining with synthetic peptide, tissue sections from AD and non-AD brain, as well as from brain, kidney, small bowel, large bowel, and prostate from a non-AD patient with amyloidosis, were cut and prepared as above. Biotinylated peptide ([…]) (SEQ ID NO:4) was added in phage buffer for 1 hour at concentrations ranging from 0.1-10 μM. Sections were washed with phage buffer, incubated with streptavidin coupled to alkaline phosphatase, washed and developed as above. […] Congo Red or hematoxylin and eosin staining was done to confirm the presence of amyloid in amyloidosis sections.

Aβ1-40 amyloid = biological target: T2, Aβ1-40 amyloid (Homo sapiens, UniProt P05067, R676K/Y681T); assay type: binding; details: immobilized Aβ1-40 amyloid, ELISA
T2 construct: purchased Bachem (Torrence, Calif.)
Protocol: Immobilized Aβ1-40 was blocked in phage panning buffer (Hanks balanced salts with 1 mM CaCl2 and 1 mM MgCl2, 10 mM Hepes, pH 7.4, and 0.5% BSA) for one hour. […] Plates were extensively washed in phage panning buffer without BSA. Anti-Thio antibody (Invitrogen; Carlsbad, Calif.) was added for 30 minutes in phage panning buffer at a dilution of 1:500. After washing, anti-mouse IgG conjugated to alkaline phosphatase was added at 1:500 for 40 minutes. Plates were washed again and incubated with paranitrophenyl phosphate (Sigma; St. Louis, Mo.). Developing substrate was read several times at 405 nm on an ELISA plate reader over the linear range (OD 0.2-1.0) and normalized to the highest binding signal. To calculate dissociation constants, binding curves were fitted by non-linear regression analysis assuming a single class of equivalent binding sites.

[3] = mouse, in vivo, iv
Protocol: (§1) Peptides were injected in sterile Tris-buffered saline, pH 7.4, with 1 mM CaCl2 and 1 mM MgCl2. 4 animals were injected for each condition. Animals were then sacrificed after one minute or two minutes. Immediately upon sacrifice, blood and organs were harvested. To quantitate peptide uptake, brain, liver, and kidney were washed and the tissues lysed by homogenization in doubly distilled water. Organs and blood were centrifuged at 13000 g to collect lysate. Organ lysates or serum were then immobilized on ELISA plates that had been coated with nitrocellulose. Some tissue and serum samples were spiked with known amounts of purified peptide to verify levels of peptide immobilization in different sample types. […] The levels of biotinylated peptide immobilized on ELISA plates was quantitated by binding of alkaline phosphatase-conjugated streptavidin. Levels of streptavidin binding were determined by development with para-nitrophenylphosphate, as in Kang et al. (Neurobiology of Disease 14:146-156 (2003)).

[4] = Uptake of peptide into brain, liver and kidney after tail vein injection; details: mouse, i.v. tail vein, 100 μL of 1 mg/mL; percentage relative to peptide in serum; SD, n=4
Protocol: as §1

In the case of PGRSPFTGKKLFNQEFSQDQ, the “staining of Aβ1-40 amyloid by phage clone” value [1] is reported as “stained Aβ1-40 amyloid aggregates more poorly, but still stained well above background levels; also recorded: stained Aβ1-40 amyloid less well”.
In the case of DWGKGGRWRLWPGASGKTEA, the “staining of Aβ1-40 amyloid by phage clone” value [1] is reported as “identified both small and large (0.5-50 μm) accumulations of Aβ1-40 amyloid; also recorded: stained Aβ1-40 amyloid”.
In the case of “Thio-Aβ: Recombinant fusion protein of thioredoxin with the cysteine-flanked DWGKGGRWRLWPGASGKTEA (SEQ ID NO:2) peptide (PAECDWGKGGRWRLWPGASGKTEACGPPY; cysteine pairing not given here; also: recombinant fusion with thioredoxin, carrier left off)”, the “lowest concentration giving positive staining of amyloid plaques” value ([2]; AD brain sections) is reported as 100 nM, the “staining of neurofibrillary tangles” value ([2]; AD brain sections) is reported as “not evident” and the “staining of amyloid plaques in AD brain” value ([2]; paraffin sections of AD brain) is reported as “heavily stained amyloid plaques from AD brains; also recorded: bound specifically to amyloid plaques in AD brains; also recorded: confirmed in brains from multiple AD subjects”. The “staining of normal brain” value ([2]; paraffin sections of normal (non-AD) brain) was “did not stain any structures in normal brain tissue; also recorded: did not bind to normal brain samples; also recorded: negative in multiple non-AD controls” and the “concentration at which binding to Aβ1-40 amyloid is saturating” value (Aβ1-40 amyloid) was 200 nM.
With `CC(C)C[C@H](NC(=O)[C@H](CCCNC(=N)N)NC(=O)[C@H](Cc1c[nH]c2ccccc12)NC(=O)[C@H](CCCNC(=N)N)NC(=O)CNC(=O)CNC(=O)[C@H](CCCCN)NC(=O)CNC(=O)[C@H](Cc1c[nH]c2ccccc12)NC(=O)[C@H](CC(=O)O)NC(=O)CCCC[C@@H]1SC[C@@H]2NC(=O)N[C@@H]21)C(=O)N[C@@H](Cc1c[nH]c2ccccc12)C(=O)N1CCC[C@H]1C(=O)NCC(=O)N[C@@H](C)C(=O)N[C@@H](CO)C(=O)NCC(=O)N[C@@H](CCCCN)C(=O)N[C@H](C(=O)N[C@@H](CCC(=O)O)C(=O)N[C@@H](C)C(=O)O)[C@@H](C)O` (Biotin-DWGKGGRWRLWPGASGKTEA-OH) the “crossing of the blood-brain barrier (in words)” value [3] was “did not cross the blood-brain barrier”.
In the case of `CC(C)C[C@@H]1NC(=O)[C@H](CCCNC(=N)N)NC(=O)[C@H](Cc2c[nH]c3ccccc23)NC(=O)[C@H](CCCNC(=N)N)NC(=O)CNC(=O)CNC(=O)[C@H](CCCCN)NC(=O)CNC(=O)[C@H](Cc2c[nH]c3ccccc23)NC(=O)[C@H](CC(=O)O)NC(=O)[C@@H](NC(=O)[C@H](CCC(=O)O)NC(=O)[C@H](C)NC(=O)CCCC[C@@H]2SC[C@@H]3NC(=O)N[C@@H]32)CSSC[C@@H](C(=O)NCC(=O)N2CCC[C@H]2C(=O)O)NC(=O)[C@H](C)NC(=O)[C@H](CCC(=O)O)NC(=O)[C@H]([C@@H](C)O)NC(=O)[C@H](CCCCN)NC(=O)CNC(=O)[C@H](CO)NC(=O)[C@H](C)NC(=O)CNC(=O)[C@@H]2CCCN2C(=O)[C@H](Cc2c[nH]c3ccccc23)NC1=O` (Biotin-AECDWGKGGRWRLWPGASGKTEACGP-OH; disulfide 3-24 (inferred); C-terminus assumed), the “% uptake/min, Kidney” value [4] is reported as 0.16 ± 0.02% uptake/min.
